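Five concentrations, 48 hours, 96-well plates. The concentration for 50% growth inhibition is given as GI50.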 The source made the active and inactive calls. Cut-off read from the data, not from the text of the source: active = GI50 up to about 1.1 µM and inactive = higher.
What was measured:
Assay in all cases: NCI tumour cell line growth inhibition, 48 h
[1] = system: 786-0
[2] = system: A498
[3] = system: A549
[4] = system: ACHN
[5] = system: CCRF-CEM
[6] = system: COLO 205
[7] = system: DLD-1
[8] = system: DMS-114
[9] = system: EKVX
[10] = system: HCC 2998
[11] = system: HCT-116
[12] = system: HCT-15
[13] = system: HL-60
[14] = system: HOP-18
[15] = system: HOP-62
[16] = system: HOP-92
[17] = system: HT-29
[18] = system: IGROV-1
[19] = system: K562
[20] = system: KM-20L2
[21] = system: KM12
[22] = system: LOX IMVI
[23] = system: LXFL 529
[24] = system: M14
[25] = system: M19-MEL
[26] = system: MOLT-4
[27] = system: Malme-3M
[28] = system: NCI-H226
[29] = system: NCI-H23
[30] = system: NCI-H460
[31] = system: NCI-H522
[32] = system: OVCAR-3
[33] = system: OVCAR-4
[34] = system: OVCAR-5
[35] = system: OVCAR-8
[36] = system: RPMI-8226
[37] = system: RXF 393
[38] = system: RXF 631
[39] = system: SF-268
[40] = system: SF-295
[41] = system: SF-539
[42] = system: SK-MEL-28
[43] = system: SK-MEL-2
[44] = system: SK-MEL-5
[45] = system: SK-OV-3
[46] = system: SN12C
[47] = system: SNB-19
[48] = system: SNB-75
[49] = system: SNB-78
[50] = system: SW-620
[51] = system: TK-10
[52] = system: U-251
[53] = system: UACC-257
[54] = system: UACC-62
[55] = system: UO-31
[56] = system: XF498
[57] = system: CAKI-1
[58] = system: DMS-273
[59] = system: SR

N#CC(C(=N/O)/C(=N\O)C(C#N)c1ccccc1)c1ccccc1 (stereo not drawn)
GI50 [1]: > 100 µM (inactive) | GI50 [2]: > 100 µM (inactive) | GI50 [3]: > 100 µM (inactive) | GI50 [4]: > 100 µM (inactive) | GI50 [5]: > 100 µM (inactive) | GI50 [6]: > 100 µM (inactive) | GI50 [7]: > 100 µM (inactive) | GI50 [8]: > 100 µM (inactive) | GI50 [9]: > 100 µM (inactive) | GI50 [10]: > 100 µM (inactive) | GI50 [11]: > 100 µM (inactive) | GI50 [12]: > 100 µM | GI50 [13]: > 100 µM (inactive) | GI50 [14]: > 100 µM (inactive) | GI50 [15]: > 100 µM (inactive) | GI50 [16]: > 100 µM (inactive) | GI50 [17]: > 100 µM (inactive) | GI50 [18]: > 100 µM (inactive) | GI50 [19]: > 100 µM (inactive) | GI50 [20]: > 100 µM (inactive) | GI50 [21]: > 100 µM (inactive) | GI50 [22]: 87.3 µM (inactive) | GI50 [23]: > 100 µM (inactive) | GI50 [24]: > 100 µM (inactive) | GI50 [25]: 99.1 µM (inactive) | GI50 [26]: > 100 µM (inactive) | GI50 [27]: > 100 µM (inactive) | GI50 [28]: > 100 µM (inactive) | GI50 [29]: > 100 µM (inactive) | GI50 [30]: > 100 µM (inactive) | GI50 [31]: > 100 µM (inactive) | GI50 [32]: > 100 µM (inactive) | GI50 [33]: > 100 µM (inactive) | GI50 [34]: > 100 µM (inactive) | GI50 [35]: > 100 µM (inactive) | GI50 [36]: > 100 µM (inactive) | GI50 [37]: > 100 µM (inactive) | GI50 [38]: > 100 µM (inactive) | GI50 [39]: > 100 µM (inactive) | GI50 [40]: > 100 µM (inactive) | GI50 [41]: > 100 µM (inactive) | GI50 [42]: > 100 µM (inactive) | GI50 [43]: > 100 µM (inactive) | GI50 [44]: > 100 µM (inactive) | GI50 [45]: > 100 µM (inactive) | GI50 [46]: > 100 µM (inactive) | GI50 [47]: > 100 µM (inactive) | GI50 [48]: > 100 µM (inactive) | GI50 [49]: > 100 µM (inactive) | GI50 [50]: > 100 µM (inactive) | GI50 [51]: > 100 µM (inactive) | GI50 [52]: > 100 µM (inactive) | GI50 [53]: > 100 µM (inactive) | GI50 [54]: > 100 µM (inactive) | GI50 [55]: > 100 µM (inactive) | GI50 [56]: > 100 µM (inactive)

O=C(CCc1cc(-c2ccccc2)[nH]c(=S)n1)Nc1ccccc1[N+](=O)[O-]
GI50 [1]: > 100 µM (inactive) | GI50 [2]: > 100 µM (inactive) | GI50 [3]: > 100 µM (inactive) | GI50 [4]: > 100 µM (inactive) | GI50 [57]: > 100 µM (inactive) | GI50 [5]: > 100 µM (inactive) | GI50 [6]: > 100 µM (inactive) | GI50 [8]: > 100 µM (inactive) | GI50 [58]: > 100 µM (inactive) | GI50 [9]: > 100 µM (inactive) | GI50 [10]: > 100 µM (inactive) | GI50 [11]: > 100 µM (inactive) | GI50 [12]: > 100 µM | GI50 [13]: > 100 µM (inactive) | GI50 [14]: > 100 µM (inactive) | GI50 [15]: > 100 µM (inactive) | GI50 [16]: > 100 µM (inactive) | GI50 [17]: > 100 µM (inactive) | GI50 [18]: > 100 µM (inactive) | GI50 [19]: > 100 µM (inactive) | GI50 [20]: > 100 µM (inactive) | GI50 [21]: > 100 µM (inactive) | GI50 [22]: > 100 µM (inactive) | GI50 [23]: > 100 µM (inactive) | GI50 [24]: > 100 µM (inactive) | GI50 [25]: > 100 µM (inactive) | GI50 [26]: > 100 µM (inactive) | GI50 [27]: > 100 µM (inactive) | GI50 [28]: > 100 µM (inactive) | GI50 [29]: > 100 µM (inactive) | GI50 [30]: > 100 µM (inactive) | GI50 [31]: > 100 µM (inactive) | GI50 [32]: > 100 µM (inactive) | GI50 [34]: > 100 µM (inactive) | GI50 [35]: > 100 µM (inactive) | GI50 [36]: > 100 µM (inactive) | GI50 [37]: > 100 µM (inactive) | GI50 [38]: > 100 µM (inactive) | GI50 [39]: > 100 µM (inactive) | GI50 [40]: > 100 µM (inactive) | GI50 [41]: > 100 µM (inactive) | GI50 [42]: > 100 µM (inactive) | GI50 [43]: > 100 µM (inactive) | GI50 [44]: > 100 µM (inactive) | GI50 [45]: > 100 µM (inactive) | GI50 [46]: > 100 µM (inactive) | GI50 [47]: > 100 µM (inactive) | GI50 [48]: > 100 µM (inactive) | GI50 [49]: > 100 µM (inactive) | GI50 [59]: > 100 µM (inactive) | GI50 [50]: > 100 µM (inactive) | GI50 [51]: > 100 µM (inactive) | GI50 [52]: > 100 µM (inactive) | GI50 [53]: > 100 µM (inactive) | GI50 [54]: > 100 µM (inactive) | GI50 [55]: > 100 µM (inactive) | GI50 [56]: 42 µM (inactive)
